Where two headings read alike, the source gives them in different places.
Test system: Escherichia coli (ECO) isolates
Assay: MIC of compounds alone and combined with antibacterials, broth microdilution (CLSI)
Type: cell-based
Conditions: for MIC: Escherichia coli, ATB alone
Procedure, shortened: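 Inoculum 5·10^5 CFU/mL (final), log phase, ca-MHB; 16-20 h, 35° C, ambient air. MIC = lowest conc. with no visible growth; ATB MIC read at each compound level.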

CC(C)(O/N=C(\C(=O)N[C@@H]1C(=O)N2C(C(=O)[O-])=C(C[n+]3ccccc3)CS[C@H]12)c1csc(N)n1)C(=O)O [CAZ, Ceftazidime]
MIC ATB in combination (ECO 4133, AF1 @ 4 μg/mL): <=0.25 μg/mL | MIC ATB in combination (ECO 4133, AF1 @ 8 μg/mL): <=0.25 μg/mL | MIC ATB in combination (ECO 5302, AF1 @ 4 μg/mL): <=0.25 μg/mL | MIC ATB in combination (ECO 5302, AF1 @ 8 μg/mL): <=0.25 μg/mL | MIC ATB in combination (ECO 131119, AF1 @ 4 μg/mL): <=0.25 μg/mL | MIC ATB in combination (ECO 131119, AF1 @ 8 μg/mL): <=0.25 μg/mL | MIC ATB in combination (ECO 180070, AF1 @ 4 μg/mL): <=0.25 μg/mL | MIC ATB in combination (ECO 180070, AF1 @ 8 μg/mL): <=0.25 μg/mL | MIC ATB in combination (ECO 190314, AF1 @ 4 μg/mL): 0.5 µg/mL | MIC ATB in combination (ECO 190314, AF1 @ 8 μg/mL): <=0.25 μg/mL | MIC ATB in combination (ECO 190317, AF1 @ 8 μg/mL): <=0.25 μg/mL | MIC ATB in combination (ECO 190457, AF1 @ 4 μg/mL): <=0.25 μg/mL | MIC ATB in combination (ECO 190457, AF1 @ 8 μg/mL): <=0.25 μg/mL | MIC ATB in combination (ECO 190549, AF1 @ 4 μg/mL): <=0.25 μg/mL | MIC ATB in combination (ECO 190549, AF1 @ 8 μg/mL): <=0.25 μg/mL | MIC ATB in combination (ECO 200159, AF1 @ 4 μg/mL): <=0.25 μg/mL | MIC ATB in combination (ECO 200159, AF1 @ 8 μg/mL): <=0.25 μg/mL | MIC ATB in combination (ECO 200259, AF1 @ 4 μg/mL): <=0.25 μg/mL | MIC ATB in combination (ECO 200259, AF1 @ 8 μg/mL): <=0.25 μg/mL | MIC ATB in combination (ECO 200344, AF1 @ 4 μg/mL): <=0.25 μg/mL | MIC ATB in combination (ECO 200344, AF1 @ 8 μg/mL): <=0.25 μg/mL | MIC ATB in combination (ECO 260096, AF1 @ 4 μg/mL): <=0.25 μg/mL | MIC ATB in combination (ECO 260096, AF1 @ 8 μg/mL): <=0.25 μg/mL | MIC ATB in combination (ECO 260304, AF1 @ 4 μg/mL): <=0.25 μg/mL | MIC ATB in combination (ECO 260304, AF1 @ 8 μg/mL): <=0.25 μg/mL | MIC ATB in combination (ECO 260508, AF1 @ 4 μg/mL): <=0.25 μg/mL | MIC ATB in combination (ECO 260508, AF1 @ 8 μg/mL): <=0.25 μg/mL | MIC ATB in combination (ECO RGN238, AF1 @ 4 μg/mL): <=0.25 μg/mL | MIC ATB in combination (ECO RGN238, AF1 @ 8 μg/mL): <=0.25 μg/mL | MIC ATB in combination (ECO UFR15, AF1 @ 4 μg/mL): <=0.25 μg/mL | MIC ATB in combination (ECO UFR15, AF1 @ 8 μg/mL): <=0.25 μg/mL | MIC ATB in combination (ECO UFR16, AF1 @ 4 μg/mL): <=0.25 μg/mL | MIC ATB in combination (ECO UFR16, AF1 @ 8 μg/mL): <=0.25 μg/mL | MIC ATB in combination (ECO UFR17, AF1 @ 4 μg/mL): 16 µg/mL | MIC ATB in combination (ECO UFR17, AF1 @ 8 μg/mL): 2 µg/mL | MIC ATB in combination (ECO UFR18, AF1 @ 4 μg/mL): 1 µg/mL | MIC ATB in combination (ECO UFR18, AF1 @ 8 μg/mL): <=0.25 μg/mL | MIC ATB in combination (ECO UFR19, AF1 @ 4 μg/mL): 1 µg/mL | MIC ATB in combination (ECO UFR19, AF1 @ 8 μg/mL): <=0.25 μg/mL | MIC ATB in combination (ECO UFR20, AF1 @ 4 μg/mL): 1 µg/mL | MIC ATB in combination (ECO UFR20, AF1 @ 8 μg/mL): 1 µg/mL | MIC ATB in combination (ECO UFR61O, AF1 @ 4 μg/mL): 2 µg/mL | MIC ATB in combination (ECO UFR61O, AF1 @ 8 μg/mL): 0.5 µg/mL | MIC ATB in combination (ECO UFR62, AF1 @ 4 μg/mL): <=0.25 μg/mL | MIC ATB in combination (ECO UFR62, AF1 @ 8 μg/mL): <=0.25 μg/mL | MIC ATB in combination (ECO UFR74, AF1 @ 4 μg/mL): 1 µg/mL | MIC ATB in combination (ECO UFR74, AF1 @ 8 μg/mL): <=0.25 μg/mL | MIC ATB in combination (ECO UFR86, AF1 @ 4 μg/mL): 1 µg/mL | MIC ATB in combination (ECO UFR86, AF1 @ 8 μg/mL): <=0.25 μg/mL | MIC ATB in combination (ECO UFR174, AF1 @ 4 μg/mL): <=0.25 μg/mL | MIC ATB in combination (ECO UFR174, AF1 @ 8 μg/mL): <0.25 µg/mL | MIC ATB in combination (ECO UFR175, AF1 @ 4 μg/mL): 2 µg/mL | MIC ATB in combination (ECO UFR175, AF1 @ 8 μg/mL): <=0.25 μg/mL | MIC ATB in combination (ECO UFR176, AF1 @ 4 μg/mL): 2 µg/mL | MIC ATB in combination (ECO UFR176, AF1 @ 8 μg/mL): <=0.25 μg/mL | MIC ATB in combination (ECO UFR184, AF1 @ 4 μg/mL): 1 µg/mL | MIC ATB in combination (ECO UFR184, AF1 @ 8 μg/mL): <=0.25 μg/mL | MIC ATB in combination (ECO UFR185, AF1 @ 4 μg/mL): 2 µg/mL | MIC ATB in combination (ECO UFR185, AF1 @ 8 μg/mL): <0.25 µg/mL | MIC ATB in combination (ECO UFR186, AF1 @ 4 μg/mL): <=0.25 μg/mL | MIC ATB in combination (ECO UFR186, AF1 @ 8 μg/mL): <=0.25 μg/mL | MIC ATB in combination (ECO UFR187, AF1 @ 4 μg/mL): 1 µg/mL | MIC ATB in combination (ECO UFR187, AF1 @ 8 μg/mL): <=0.25 μg/mL | MIC ATB in combination (ECO UFR189, AF1 @ 4 μg/mL): <=0.25 μg/mL | MIC ATB in combination (ECO UFR189, AF1 @ 8 μg/mL): <=0.25 μg/mL | MIC ATB in combination (ECO UFR190, AF1 @ 4 μg/mL): <=0.25 μg/mL | MIC ATB in combination (ECO UFR190, AF1 @ 8 μg/mL): <=0.25 μg/mL | MIC ATB in combination (ECO UFR191, AF1 @ 4 μg/mL): <=0.25 μg/mL | MIC ATB in combination (ECO UFR191, AF1 @ 8 μg/mL): <=0.25 μg/mL | MIC ATB in combination (ECO UFR207, AF1 @ 4 μg/mL): <=0.25 μg/mL | MIC ATB in combination (ECO UFR207, AF1 @ 8 μg/mL): <=0.25 μg/mL | MIC ATB in combination (ECO UFR208, AF1 @ 4 μg/mL): 4 µg/mL | MIC ATB in combination (ECO UFR208, AF1 @ 8 μg/mL): 2 µg/mL | MIC ATB in combination (ECO UFR209, AF1 @ 4 μg/mL): <=0.25 μg/mL | MIC ATB in combination (ECO UFR209, AF1 @ 8 μg/mL): <=0.25 μg/mL | MIC ATB in combination (ECO UFR210, AF1 @ 4 μg/mL): <=0.25 μg/mL | MIC ATB in combination (ECO UFR210, AF1 @ 8 μg/mL): <=0.25 μg/mL | MIC ATB in combination (ECO UFR211, AF1 @ 4 μg/mL): 0.5 µg/mL | MIC ATB in combination (ECO UFR211, AF1 @ 8 μg/mL): <=0.25 μg/mL | MIC ATB in combination (ECO UFR212, AF1 @ 4 μg/mL): 4 µg/mL | MIC ATB in combination (ECO UFR212, AF1 @ 8 μg/mL): <=0.25 μg/mL | MIC ATB in combination (ECO UFR218, AF1 @ 4 μg/mL): <=0.25 μg/mL | MIC ATB in combination (ECO UFR218, AF1 @ 8 μg/mL): <0.25 µg/mL | MIC (strain ECO 4133 (TEM-30, OXA-1)): 0.5 µg/mL | MIC (strain ECO 5302 (TEM-1, OXA-1)): 0.5 µg/mL | MIC (strain ECO 131119 (TEM-1, OXA-48)): 0.5 µg/mL | MIC (strain ECO 190314 (CTX-M-1)): 8 µg/mL | MIC (strain ECO 190457 (CTX-M-15, OXA-1)): 16 µg/mL | MIC (strain ECO 190549 (CTX-M-1)): 4 µg/mL | MIC (strain ECO 200344 (CTX-M-1)): 8 µg/mL | MIC (strain ECO 260304 (CTX-M-15)): 16 µg/mL | MIC (strain ECO RGN238 (OXA-1)): 0.5 µg/mL | MIC (strain ECO UFR15 (TEM-1, OXA-48)): 0.5 µg/mL | MIC (strain ECO UFR86 (ompC-, ompF-), read-out: MIC): 2 µg/mL | MIC (strain ECO UFR174 (TEM-1, KPC-2, OXA-1)): 8 µg/mL | MIC (strain ECO UFR175 (TEM-1, KPC-2, OXA-9)): 32 µg/mL | MIC (strain ECO UFR185 (OXA-48), read-out: MIC): > 256 µg/mL | MIC (strain ECO UFR186 (TEM-1, CTX-M-14, OXA-48)): 8 µg/mL | MIC (strain ECO UFR187 (CTX-M-15, OXA-48)): 8 µg/mL | MIC (strain ECO UFR191 (TEM-1, CTX-M-24, OXA-48)): 4 µg/mL | MIC (strain ECO UFR210 (SHV-12)): 32 µg/mL

Reference: patent publication US20200017496A1 (priority 2017, published 2020)
